One experiment deals with S. typhimurium KCTC1926. It is filed as cell-based, Salmonella typhimurium. Conditions: S. typhimurium KCTC1926; broth microdilution, 37°C, 16 h; three independent experiments in triplicate, SD 14.0%.
For a further experiment, the system named is MDRPA CCARM 2163. It is filed as cell-based, multidrug-resistant P. aeruginosa. Conditions: broth microdilution, 37°C, 16 h, three independent experiments in triplicate, SD 14.0%.
For the next experiment, the system named is B. subtilis KCTC3068. It is filed as cell-based, Bacillus subtilis. Conditions: B. subtilis KCTC3068; broth microdilution, 37°C, 16 h; three independent experiments in triplicate, SD 14.0%.
The test system of the next experiment is MDRAB CCARM 12035. The format is cell-based, multidrug-resistant Acinetobacter baumanii. Conditions: broth microdilution, 37°C, 16 h, three independent experiments in triplicate, SD 14.0%.
For the next experiment, the system named is P. aeruginosa KCTC2004. The format is cell-based, Pseudomonas aeruginosa. Conditions: P. aeruginosa KCTC2004; broth microdilution, 37°C, 16 h; three independent experiments in triplicate, SD 14.0%.
The next experiment deals with MRSA CCARM 3108. The format is cell-based, Methicillin-resistant S. aureus. Conditions: MRSA CCARM 3108; broth microdilution, 37°C, 16 h; three independent experiments in triplicate, SD 14.0%.
The next experiment has as its system B. subtilis KCTC1022. The format is cell-based, Bacillus subtilis. Conditions: B. subtilis KCTC1022; broth microdilution, 37°C, 16 h; three independent experiments in triplicate, SD 14.0%.
The next experiment concerns B. subtilis KCTC1021. The format is cell-based, Bacillus subtilis. Conditions: B. subtilis KCTC1021; broth microdilution, 37°C, 16 h; three independent experiments in triplicate, SD 14.0%.
The next experiment relates to MDRPA CCARM 2095. It is filed as cell-based, multidrug-resistant P. aeruginosa. Conditions: broth microdilution, 37°C, 16 h, three independent experiments in triplicate, SD 14.0%.
The subject of another experiment is MDREC CCARM 1229. The format is cell-based, multidrug-resistant E. coli. Conditions: broth microdilution, 37°C, 16 h, three independent experiments in triplicate, SD 14.0%.
Another experiment has as its system MDRST CCARM 8007. The format is cell-based, multidrug-resistant S. typhimurium. Conditions: broth microdilution, 37°C, 16 h, three independent experiments in triplicate, SD 14.0%.
The next experiment has as its system S. epidermidis KCTC1917. The format is cell-based, Staphylococcus epidermidis. Conditions: S. epidermidis KCTC1917; broth microdilution, 37°C, 16 h; three independent experiments in triplicate, SD 14.0%.
Another experiment relates to MDRPA CCARM 2003. It is filed as cell-based, multidrug-resistant P. aeruginosa. Conditions: broth microdilution, 37°C, 16 h, three independent experiments in triplicate, SD 14.0%.

Where no end group is shown, it is not given here.

Description for B. subtilis KCTC1021: (§1) The antimicrobial activities of the peptides against selected organisms, including three Gram-positive, three Gram-negative, and five antibiotic-resistant bacteria, were determined using a broth microdilution assay. Briefly, single colonies of bacteria and fungi were inoculated into Luria-Bertani (LB) medium and cultured overnight at 37°C. An aliquot of the culture was transferred to 10 mL of fresh LB and incubated for an additional 3–5 h at 37°C until it reached the mid-logarithmic phase. Two-fold serial dilutions of the peptides in 1% peptone were prepared. The serial dilutions (100 µL) were added to 100 µL of cells (2×10^6 colony-forming units (CFU)/mL) in 96-well microtiter plates and incubated at 37°C for 16 h. […] MIC values were calculated as the average of triplicate measurements from three independent assays.
Description for B. subtilis KCTC1022: as §1
Description for B. subtilis KCTC3068: as §1
Description for MDRAB CCARM 12035: as §1
Description for MDREC CCARM 1229: as §1
Description for MDRPA CCARM 2003: as §1
Description for MDRPA CCARM 2095: as §1
Excerpt for MDRST CCARM 8007: (§2) Escherichia coli KCTC 1682, E. coli KCTC 2593, E. coli KCTC 2571, Salmonella typhimurium KCTC 1926, Pseudomonas aeruginosa KCTC 1637, P. aeruginosa KCTC 2004, P. aeruginosa KCTC 2513, Bacillus subtilis KCTC 3068, B. subtilis KCTC 1021, B. subtilis KCTC 1022, Staphylococcus epidermidis KCTC 1917, Staphylococcus aureus KCTC 1621, S. aureus KCTC 1916, and S. aureus KCTC 3881 were purchased from the Korean Collection for Type Cultures, Korea Research Institute of Bioscience & Biotechnology (Taejon, Korea). Methicillin-resistant S. aureus (MRSA) (CCARM 3089, CCARM 3090, CCARM 3108, CCARM 3114, and CCARM 3126), multidrug-resistant E. coli (MDREC) (CCARM 1229 and CCARM 1238), multidrug-resistant S. typhimurium (MDRST) (CCARM 8003, CCARM 8007, and CCARM 8009), multidrug-resistant Acinetobacter baumanii (MDRAB) (CCARM 12005, CCARM 12035, CCARM 12036, CCARM 12037), and multidrug-resistant P. aeruginosa (MDRPA) (CCARM 2002, CCARM 2003, CCARM 2095, and CCARM 2163) were obtained from the Culture Collection of Antibiotic-Resistant Microbes (CCARM) at Seoul Women’s University in Korea. The antimicrobial activities of the peptides against selected organisms, including three Gram-positive, three Gram-negative, and five antibiotic-resistant bacteria, were determined using a broth microdilution assay. Briefly, single colonies of bacteria and fungi were inoculated into Luria-Bertani (LB) medium and cultured overnight at 37°C. An aliquot of the culture was transferred to 10 mL of fresh LB and incubated for an additional 3–5 h at 37°C until it reached the mid-logarithmic phase. Two-fold serial dilutions of the peptides in 1% peptone were prepared. The serial dilutions (100 µL) were added to 100 µL of cells (2×10^6 colony-forming units (CFU)/mL) in 96-well microtiter plates and incubated at 37°C for 16 h. […] MIC values were calculated as the average of triplicate measurements from three independent assays.
Excerpt for MRSA CCARM 3108: as §2
Description for P. aeruginosa KCTC2004: as §1
Description for S. epidermidis KCTC1917: as §1

As for “FFHHIFRGIVHVGKTIHRLVTG [Pis-1, reference compound]”, the MIC in the experiment with S. typhimurium KCTC1926 was determined as 2.0 µM; against MDRPA CCARM 2163, 2.0 µM; in the experiment on B. subtilis KCTC3068, 1.0 µM; in the experiment on MDRAB CCARM 12035, 2.0 µM; in the experiment with P. aeruginosa KCTC2004, 2.0 µM; against MRSA CCARM 3108, 4.0 µM. In addition, the MIC against B. subtilis KCTC1022 was 1.0 µM; against B. subtilis KCTC1021, 2.0 µM; in the experiment on MDRPA CCARM 2095, 2.0 µM; in the experiment with MDREC CCARM 1229 it was 4.0 µM; with MDRST CCARM 8007, 4.0 µM; in the experiment with S. epidermidis KCTC1917, 2.0 µM. The sequence further registered a minimal inhibitory concentration (MIC) in the experiment on MDRPA CCARM 2003 of 2.0 µM.

The record behind these values is article PMC4256409, “Role of Phenylalanine and Valine^10 Residues in the Antimicrobial Activity and Cytotoxicity of Piscidin-1” (PLoS ONE, 2014).
